Data as given in patent publication US12570696B2, “Tumor-specific polypeptide sequence and use thereof” (SHENZHEN GINO BIOTECHNOLOGY CO., LTD., priority 2019, dated 2026).
Values joined by “and” are separate entries in the source; they are usually repeats but may differ in a detail not shown here. Equal values may be shown once.

Assays:
[1] = biological target: T1, MHC I molecules on the surfaces of T2 cells (HLA-A*11:01) (Homo sapiens, UniProt P04439, A114D/D185E/E176A/F33Y/L180Q/S129P/T187R); assay: Verification of affinity of polypeptide with T2 cells (flow cytometry, fluorescence index); type: cell-based
T1 construct: endogenous in cells; host or cells: T2 cells
Excerpt: T2 cells are a necessary antigen polypeptide transporter-deficient cell line in the endogenous antigen presentation pathway, and can be used to study the strength of the mutual recognition with MHC molecules in the antigen presentation process.
In order to verify the affinity of exogenous polypeptides with T2 cells, a polypeptide that had been confirmed to have strong affinity with T2 cells was used as positive control, and T2 cells without adding polypeptides were used as background control. […] Based on this, the affinity of the polypeptide with T2 cells is determined. The higher the FI value, the stronger the affinity of the polypeptide with T2 cells, which is conducive to the subsequent recognition of specific CD8^+ T cells.
The synthesized polypeptides were added to 2*10^5 T2 cells, and human β2 micro-globulin (with a final concentration of 3 μg/ml) was added and cultivated in 24-well plate. The plate was cultured in an incubator (37° C., 5% CO2) overnight. […] (SEQ ID NO: 9), which is a viral peptide and is also a known polypeptide with strong affinity with T2 cells, was used as a positive control, duplicate wells for each experiment, and the average value was calculated.
[…] for 5 minutes to collect the cells. […] The mean fluorescence intensity was then detected and analyzed by a flow cytometer (BD FACSJazz™) and its software, see FIG. 2.

CD8+ T cells = assay: ELISPOT verification of activation of CD8+ T cell immune response (IFN-gamma secretion); type: cell-based, human
Method: (§1) The peripheral blood mononuclear cells (PBMCs) were collected from the volunteers who were positive for the corresponding subtype of the polypeptide. For 2×10^7 PBMCs, mononuclear cells were separated by using the adherent method (adhered for 3 h), and CD8^+ T cells were isolated by using CD8 magnetic beads. The adherent mononuclear cells were induced to immature DC cells by using GM-CSF (1000 U/ml) and IL-4 (1000 U/ml). Then, the adherent cells were induced into polypeptide-specific mature DC cells by IFN-gamma (100 U/ml), LPS (10 ng/ml), and the respective polypeptides. The obtained polypeptide-specific mature DC cells were co-cultured with volunteers' CD8^+ T cells, and IL-21 was added. After 3 days, IL-2 and IL-7 were supplemented. Thereafter, IL-2 and IL-7 were supplemented on day 5 and day 7, and on day 10, the co-cultured cells were counted, and the subsequent ELISPOTs and LDH were detected.
The ELISPOT method is an enzyme-linked immunospot assay, which can detect the cytokines secreted by a single cell. In the assay, the culture plate was coated with specific monoclonal antibodies, and then the cells to be detected and antigenic stimulant were added for culture. Under the stimulation of the stimulant, the corresponding cytokines were secreted by the T cells, and the secreted cytokines were captured by the antibodies coated on the culture plate. After washing away the cells, the captured cytokines were bonded to […] secondary antibodies to form spots. […]
With reference to the specification in the ELISPOT kit, the cells cultured in Example 4, T2 cells loaded with testing polypeptide ([…], SEQ ID NO: 2), and T2 cells loaded with irrelevant polypeptide (referring to a polypeptide not stimulating T cells to secrete IFN-gamma interferon and having a specific sequence of […], the irrelevant polypeptide used in the following examples also refers to this sequence) were added respectively to the ELISPOT plate for cultivation, and ELISPOTs were detected after 20 hours (see the specification of the ELISPOT kit). […]

T2 cells = assay: LDH release assay of polypeptide-specific killing activity of CD8+ T cells; type: cell-based; details: triplicate wells
Method: as §1
LDH is an enzyme present in the cytoplasm. LDH will be released into the culture medium when the cell membrane is damaged. Since the released LDH is stable, the measured amount of LDH in the medium can be used as an indicator to measure the number of dead and damaged cells.
The cells cultured in Example 4 were co-cultured with the T2 cells loaded with the testing polypeptide or the irrelevant polypeptide or no polypeptide. In the assay, maximum release wells, volume correction wells, medium control wells, spontaneous release wells, different effect-target ratios (the ratio of the number of T cells to the number of T2 cells) were set, triplicated wells for each group. After 4 hours, 50 μl of the co-cultured cell supernatant was taken and added to 50 μl of LDH substrate mixture, allowing the cell supernatant to catalyze the LDH substrate reaction, finally reading at the wavelength of 490 nm and the reference wavelength of 680 nm. Based on the control wells, the killing activity of […] killing T2 cells was calculated. The greater the value shown in Table 4, the stronger the killing effect.

[2] = system: HCC827 subcutaneous tumor model; assay: Polypeptide vaccine in mouse subcutaneous transplanted tumor model; type: in vivo, NOD/SCID mice; details: polypeptide + Freund's adjuvant, 4 immunizations, compared with wild-type polypeptide group and adjuvant group, FIG. 4
Excerpt: (§2) This model was used to verify the tumor control effect of the polypeptide pharmaceutical combination, the antigen-presenting cell, and the vaccine proposed by the present disclosure. • 1. The encoding gene of each polypeptide was introduced by lentivirus transfection, and the recombinant lentivirus expressing the above-mentioned mutant polypeptide or a variant thereof was constructed and packaged. • 2. Construction of human-derived lung cancer cell line expressing the polypeptides
(§3) The human lung cancer cell line HCC827 was purchased from ATCC (No: CRL-2868), and its HLA subtype was HLA-A*1101 positive. Cells were cultured in DMEM medium containing 10% fetal bovine serum, 100 U/mL penicillin and streptomycin, in an incubator at 37° C., 5% CO2. […]
(§4) The established human lung cancer cell line was cultured in DMEM medium containing 10% fetal bovine serum, 100 U/mL penicillin and streptomycin, in an incubator at 37° C., 5% CO2. […] The subcutaneous tumor model NOD/SCID mice with immune reconstitution for 4 weeks were treated with DC vaccine, and the tumor volumes were recorded every 3 to 4 days. […]
The first immunization dosage of the polypeptide of each group was […] per mouse. […] After the injection, the vital signs of the mice were observed, and the vertical and horizontal sizes of the tumor were measured with a vernier caliper every 3 to 4 days. […]

[3] = system: HCC827 subcutaneous tumor model; assay: DC polypeptide vaccine in mouse subcutaneous transplanted tumor model; type: in vivo, NOD/SCID mice; details: polypeptide-loaded DC cells, intradermal, 2 injections; compared with wild-type and blank polypeptide-loaded DC groups; FIG. 5
Excerpt: as §2
The human lung cancer cell line HCC827 was purchased from ATCC (No: CRL-2868), and its HLA subtype was HLA-A*1101 positive. Cells were cultured in DMEM medium containing 10% fetal bovine serum, 100 U/mL penicillin and streptomycin, in an incubator at 37° C., 5% CO2. The packaged lentivirus was transfected into the HCC827 cell line, and antibiotic puromycin was used to continuously screen the surviving HCC827 cell line, and finally the HCC827 cell line expressing the polypeptides was established. • 3. NOD SCID mouse human immune reconstitution […]
as §4

[4] = system: HCC827 subcutaneous tumor model; assay: Polypeptide-specific DC-CTL vaccine in mouse subcutaneous transplanted tumor model; type: in vivo, NOD/SCID mice; details: polypeptide-activated CTLs reinfused through the tail vein; compared with blank polypeptide and wild-type polypeptide groups; FIG. 6
Excerpt: as §2, §3
The established human lung cancer cell line was cultured in DMEM medium containing 10% fetal bovine serum, 100 U/mL penicillin and streptomycin, in an incubator at 37° C., 5% CO2. […] The subcutaneous tumor model NOD/SCID mice with immune reconstitution for 4 weeks were treated with DC vaccine, and the tumor volumes were recorded every 3 to 4 days.
The PBLs collected in Example 9 were sorted by magnetic beads to obtain CD8^+ T cells. […] The culture medium was incubated with 500 IU/ml IL-2 and 50 ng/ml IL-7, in an incubator at 37° C. with 5% CO2, and the cells were counted after 1 week of culture. […]

Q: With RHGGWTTK (Mutant polypeptide) as the sequence, how does the “Conclusion (T2 cell affinity)” value ([1]; compared with the positive control) read?
A: High affinity

Q: And the FI ([1]; fluorescence index, T2 cells, overnight, FITC anti-HLA-A*11:01 antibody, flow cytometry)?
A: 2.12

Q: What about the “Number of spots produced by using irrelevant polypeptide as stimulant” value (CD8+ T cells; IFN-gamma ELISPOT, T2 cells loaded with irrelevant polypeptide LSYRNKPSI, 20 hours) of the same sequence?
A: 11

Q: What about the “Number of spots produced by using testing polypeptide as stimulant” value (CD8+ T cells; IFN-gamma ELISPOT, T2 cells loaded with testing polypeptide, 20 hours) of the same sequence?
A: 104

Q: And the “Multiple (testing/irrelevant)” value (CD8+ T cells; ratio of spot numbers, >=2 regarded as having immunogenicity)?
A: 9

Q: What about the “Killing activity, T + T2 (loaded with no polypeptide)” value (T2 cells; E:T = 1:1, 4 hours) of the same sequence?
A: 0.322 and 0.279 and 0.298

Q: What about the “Killing activity, T + T2 + irrelevant polypeptide” value (T2 cells; E:T = 1:1, 4 hours) of the same sequence?
A: 0.278 and 0.293 and 0.308

Q: And the “Killing activity, T + T2 + testing polypeptide” value (T2 cells; E:T = 1:1, 4 hours)?
A: 0.324 and 0.351

Q: What about the “Killing activity, T + T2 (loaded with no polypeptide)” value (T2 cells; E:T = 10:1, 4 hours) of the same sequence?
A: 0.413 and 0.352 and 0.364

Q: And the “Killing activity, T + T2 + irrelevant polypeptide” value (T2 cells; E:T = 10:1, 4 hours)?
A: 0.436 and 0.371 and 0.407

Q: What about the “Killing activity, T + T2 + testing polypeptide” value (T2 cells; E:T = 10:1, 4 hours) of the same sequence?
A: 0.406 and 0.397 and 0.414

Q: What about the “Mouse tumor growth (tumor volume), polypeptide vaccine” value [2] of the same sequence?
A: can significantly slow down the mouse tumor growth

Q: What about the “Mouse tumor growth (tumor volume), polypeptide-loaded DC vaccine” value [3] of the same sequence?
A: can significantly slow down the mouse tumor growth

Q: And the “Mouse tumor growth (tumor volume), DC-CTL vaccine” value [4]?
A: can significantly slow down the mouse tumor growth
